Reference: patent EP0580252A2, “Improvements in or relating to pectin methyl esterase” (QUEST INTERNATIONAL B.V., priority 1992, dated 1994)

Legend:
[1] = system: PMEs (papain PME, ficin PME and other known plant PMEs); assay: Inhibition of PME activity by galacturonic acid; format: biochemical; details: up to concentrations of 25 gl⁻¹
papain PME = assay: Effect of methanol (reaction product) on PME activity; format: biochemical, papaya; details: methanol concentration not stated
tomato PME = assay: Inhibition test with tyrosine selective inhibitor N-acetyl-imidazole; format: biochemical; details: NAI 1.4mg.100 ml; 1% pectin; enzyme 0.005-0.088%
Protocol: (§1) Bacterial and plant derived PMEs were tested for inhibition by N-acetyl-imidazole (NAI), a tyrosine selective inhibitor.
(§2) Inhibition by N-acetyl-imidazole was carried out in three different ways: by addition of the NAI to enzyme solution, to pectin solution, and to mixed enzyme and substrate. Typically we used 1% pectin (5% for papain also), enzyme concentrations of 0.005-0.088% and NAI concentrations of 1.4mg.100 ml.

[2] = system: WGL (wheat germ lipase) derived PME (pectin methyl esterase); assay: as above; format: biochemical; details: NAI 1.4mg.100 ml; 1% pectin; enzyme 0.005-0.088%
Protocol: as §1, §2

orange PME = assay: as above; format: biochemical; details: NAI 1.4mg.100 ml; 1% pectin; enzyme 0.005-0.088%
Protocol: as §1, §2

bacterial PMEs = assay: as above; format: biochemical; details: NAI 1.4mg.100 ml; 1% pectin; enzyme 0.005-0.088%
Protocol: as §1, §2

[3] = system: ficin derived PME (pectin methyl esterase); assay: as above; format: biochemical, fig; details: NAI 1.4mg.100 ml; 1% pectin; enzyme 0.005-0.088%
Protocol: as §1, §2

[4] = system: papain derived PME (pectin methyl esterase); assay: as above; format: biochemical, papaya; details: NAI 1.4mg.100 ml; 1% pectin (5% for papain also); enzyme 0.005-0.088%
Protocol: as §1, §2

[5] = system: bromelain derived PME (pectin methyl esterase); assay: as above; format: biochemical, bromelard; details: NAI 1.4mg.100 ml; 1% pectin; enzyme 0.005-0.088%
Protocol: as §1, §2

Compound: galacturonic acid
- inhibition by galacturonic acid [1]: None of the PMEs is inhibited

Compound: CO [methanol]
- inhibition by methanol (papain PME; 1% pectin): inhibited
- inhibition by methanol (papain PME; 5% pectin): hardly noticed
- inhibition by methanol (papain PME): under certain conditions is inhibited and YES

Compound: CC(=O)n1ccnc1 [NAI, N-acetyl-imidazole]
- inhibition by NAI (tomato PME): inhibited
- inhibition by NAI [2]: not to be inhibited
- inhibition by NAI (orange PME): inhibited
- inhibition by NAI (bacterial PMEs): inhibited
- inhibition by NAI [3]: not to be inhibited
- inhibition by NAI [4]: not to be inhibited
- inhibition by NAI [5]: not to be inhibited
